Source: ChEMBL document CHEMBL3885861, “Open TG-GATES”

Species on record: Rattus norvegicus
Experiment: Open TG-GATES - Regimen: Single
Type: toxicity, organism-based, Sprague-Dawley
Set-up: regimen Single, gender Male, age 6 weeks
Conditions: in vivo, po, 1000 mg/kg, route gavage, dose level High; for APTT / Bas / Eos / Fbg / Hb / Ht / Lym / MCH / MCHC / MCV / Mono / Neu / PT / Plat / RBC / Ret / WBC: tissue Blood; for KIDNEY_L / KIDNEY_R / KIDNEY_TOTAL: tissue Kidney; for LIVER: tissue Liver; for ALP / ALT / AST / BUN / CRE / Ca / Cl / DBIL / GLC / IP / K / LDH / Na / PL / RALB / TBIL / TC / TG / TP / gamma-GTP: tissue Plasma

Compound: COC(=O)C1=C(C)NC(C)=C(C(=O)OC)C1c1ccccc1[N+](=O)[O-] [NIFEDIPINE]
- TERMINAL_BW (3 h): 207.9 g
- APTT (3 h): 16.6 s
- Bas (3 h): 0%
- Eos (3 h): 1%
- Fbg (3 h): 285.2 mg/dL
- Hb (3 h): 13 g/dL
- Ht (3 h): 39.9%
- Lym (3 h): 69.8%
- MCH (3 h): 20.8 pg
- MCHC (3 h): 32.6%
- MCV (3 h): 63.8 fL
- Mono (3 h): 4.6%
- Neu (3 h): 24.2%
- PT (3 h): 14.9 s
- Plat (3 h): 122.2 x10_4/uL
- RBC (3 h): 626 x10_4/ul
- Ret (3 h): 9.7%
- WBC (3 h): 108.1 x10_2/uL
- KIDNEY_L (3 h): 0.9 g
- KIDNEY_R (3 h): 0.9 g
- KIDNEY_TOTAL (3 h): 1.9 g
- LIVER (3 h): 8.4 g
- ALP (3 h): 1381.2 IU/L
- ALT (3 h): 51 IU/L
- AST (3 h): 74.8 IU/L
- BUN (3 h): 26.2 mg/dL
- CRE (3 h): 0.2 mg/dL
- Ca (3 h): 11.8 mg/dL
- Cl (3 h): 97.2 meq/L
- DBIL (3 h): 0.008 mg/dL
- GLC (3 h): 260.8 mg/dL
- IP (3 h): 9.2 mg/dL
- K (3 h): 5 meq/L
- LDH (3 h): 99.4 IU/L
- Na (3 h): 134.8 meq/L
- PL (3 h): 141.4 mg/dL
- RALB (3 h): 2.5 g/dL
- TBIL (3 h): 0.036 mg/dL
- TC (3 h): 81.6 mg/dL
- TG (3 h): 46.4 mg/dL
- TP (3 h): 5.2 g/dL
- gamma-GTP (3 h): 1.6 IU/L
- TERMINAL_BW (6 h): 205.1 g
- APTT (6 h): 16.5 s
- Bas (6 h): 0.2%
- Eos (6 h): 0.4%
- Fbg (6 h): 282.6 mg/dL
- Hb (6 h): 13 g/dL
- Ht (6 h): 39.6%
- Lym (6 h): 77%
- MCH (6 h): 20.6 pg
- MCHC (6 h): 32.8%
- MCV (6 h): 62.7 fL
- Mono (6 h): 3.6%
- Neu (6 h): 18%
- PT (6 h): 14.9 s
- Plat (6 h): 123.3 x10_4/uL
- RBC (6 h): 632.4 x10_4/ul
- Ret (6 h): 9.2%
- WBC (6 h): 92.1 x10_2/uL
- KIDNEY_L (6 h): 0.9 g
- KIDNEY_R (6 h): 0.9 g
- KIDNEY_TOTAL (6 h): 1.9 g
- LIVER (6 h): 7.3 g
- ALP (6 h): 1242.8 IU/L
- ALT (6 h): 50.6 IU/L
- AST (6 h): 83 IU/L
- BUN (6 h): 40.2 mg/dL
- CRE (6 h): 0.2 mg/dL
- Ca (6 h): 11 mg/dL
- Cl (6 h): 97.2 meq/L
- DBIL (6 h): 0.008 mg/dL
- GLC (6 h): 229.6 mg/dL
- IP (6 h): 11 mg/dL
- K (6 h): 5 meq/L
- LDH (6 h): 81 IU/L
- Na (6 h): 136.4 meq/L
- PL (6 h): 148.2 mg/dL
- RALB (6 h): 2.6 g/dL
- TBIL (6 h): 0.052 mg/dL
- TC (6 h): 90.2 mg/dL
- TG (6 h): 16.4 mg/dL
- TP (6 h): 5.4 g/dL
- gamma-GTP (6 h): 1 IU/L
- TERMINAL_BW (9 h): 206.6 g
- APTT (9 h): 16.7 s
- Bas (9 h): 0.4%
- Eos (9 h): 0.4%
- Fbg (9 h): 287 mg/dL
- Hb (9 h): 13.2 g/dL
- Ht (9 h): 39.8%
- Lym (9 h): 74%
- MCH (9 h): 20.8 pg
- MCHC (9 h): 33.3%
- MCV (9 h): 62.5 fL
- Mono (9 h): 4.8%
- Neu (9 h): 19.2%
- PT (9 h): 14.6 s
- Plat (9 h): 123.6 x10_4/uL
- RBC (9 h): 637 x10_4/ul
- Ret (9 h): 9.7%
- WBC (9 h): 96.3 x10_2/uL
- KIDNEY_L (9 h): 0.9 g
- KIDNEY_R (9 h): 0.9 g
- KIDNEY_TOTAL (9 h): 1.7 g
- LIVER (9 h): 7.1 g
- ALP (9 h): 1341 IU/L
- AST (9 h): 75.2 IU/L
- BUN (9 h): 41.8 mg/dL
- CRE (9 h): 0.2 mg/dL
- Ca (9 h): 10.8 mg/dL
- Cl (9 h): 96.4 meq/L
- DBIL (9 h): 0.008 mg/dL
- GLC (9 h): 217.4 mg/dL
- IP (9 h): 11.9 mg/dL
- K (9 h): 5.3 meq/L
- LDH (9 h): 85 IU/L
- Na (9 h): 134.6 meq/L
- PL (9 h): 152.4 mg/dL
- RALB (9 h): 2.6 g/dL
- TBIL (9 h): 0.052 mg/dL
- TC (9 h): 90.8 mg/dL
- TG (9 h): 22.2 mg/dL
- TP (9 h): 5.5 g/dL
- gamma-GTP (9 h): 1.4 IU/L
- TERMINAL_BW (24 h): 197.1 g
- APTT (24 h): 17.4 s
- Bas (24 h): 0.2%
- Eos (24 h): 0.8%
- Fbg (24 h): 374 mg/dL
- Hb (24 h): 13.1 g/dL
- Ht (24 h): 39.6%
- Lym (24 h): 72.8%
- MCH (24 h): 20.9 pg
- MCHC (24 h): 33.1%
- MCV (24 h): 63.3 fL
- Mono (24 h): 3.6%
- Neu (24 h): 22%
- PT (24 h): 13.7 s
- Plat (24 h): 142.3 x10_4/uL
- RBC (24 h): 625.8 x10_4/ul
- Ret (24 h): 9.7%
- WBC (24 h): 99.5 x10_2/uL
- KIDNEY_L (24 h): 0.8 g
- KIDNEY_R (24 h): 0.9 g
- KIDNEY_TOTAL (24 h): 1.7 g
- LIVER (24 h): 6.9 g
- ALP (24 h): 1549.8 IU/L
- ALT (24 h): 40.6 IU/L
- AST (24 h): 67.8 IU/L
- BUN (24 h): 10.8 mg/dL
- CRE (24 h): 0.2 mg/dL
- Ca (24 h): 10.4 mg/dL
- Cl (24 h): 106 meq/L
- DBIL (24 h): 0.012 mg/dL
- GLC (24 h): 167 mg/dL
- IP (24 h): 8.6 mg/dL
- K (24 h): 3.8 meq/L
- LDH (24 h): 78.2 IU/L
- Na (24 h): 143 meq/L
- PL (24 h): 126.4 mg/dL
- RALB (24 h): 2.9 g/dL
- TBIL (24 h): 0.054 mg/dL
- TC (24 h): 78 mg/dL
- TG (24 h): 27 mg/dL
- TP (24 h): 6.1 g/dL
- gamma-GTP (24 h): 1 IU/L
